Source: ChEMBL document CHEMBL1201862, “PubChem BioAssay data set” (2004)
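Five compound concentrations were applied to cells in 96-well plates for 48 hours; endpoints were derived by simple linear interpolation of the resulting dose-response curve. Abbreviation: GI50, concentration required for 50% inhibition of growth.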 Activity calls are given as the source filed them. No stated cut-off is given here; in the data, active = GI50 up to about 1.1 µM and inactive = higher.

How the values were obtained:
Test in all cases: NCI tumour cell line growth inhibition, 48 h
[1] = system: OVCAR-8
[2] = system: U-251
[3] = system: CAKI-1
[4] = system: OVCAR-3
[5] = system: A549
[6] = system: EKVX
[7] = system: NCI/ADR-RES
[8] = system: MCF7
[9] = system: HCT-15
[10] = system: SK-MEL-2
[11] = system: OVCAR-5
[12] = system: MDA-MB-435
[13] = system: COLO 205
[14] = system: SK-MEL-5
[15] = system: SNB-19
[16] = system: RPMI-8226
[17] = system: IGROV-1
[18] = system: MDA-N
[19] = system: UO-31
[20] = system: SF-295
[21] = system: HOP-62
[22] = system: NCI-H522
[23] = system: UACC-257
[24] = system: NCI-H23
[25] = system: TK-10
[26] = system: Hs-578T
[27] = system: PC-3
[28] = system: M14
[29] = system: ACHN
[30] = system: SN12C
[31] = system: MOLT-4
[32] = system: 786-0
[33] = system: T47D
[34] = system: HCT-116
[35] = system: Malme-3M
[36] = system: K562
[37] = system: LOX IMVI
[38] = system: KM12
[39] = system: SNB-75
[40] = system: SW-620
[41] = system: UACC-62
[42] = system: SK-MEL-28
[43] = system: SF-268
[44] = system: HCC 2998
[45] = system: A498
[46] = system: RXF 393
[47] = system: CCRF-CEM
[48] = system: OVCAR-4
[49] = system: BT-549
[50] = system: HT-29
[51] = system: HOP-92
[52] = system: DU-145
[53] = system: HL-60
[54] = system: SK-OV-3
[55] = system: NCI-H226
[56] = system: SF-539
[57] = system: NCI-H460
[58] = system: MDA-MB-231
[59] = system: SR

CN(C)C=C1C(=O)c2c(Br)sc(Br)c2C1=O
GI50 [1]: 22.9 µM (inactive) | GI50 [2]: 19.1 µM (inactive) | GI50 [3]: 18.1 µM (inactive) | GI50 [4]: 19.1 µM (inactive) | GI50 [5]: 36.4 µM (inactive) | GI50 [6]: 18.9 µM (inactive) | GI50 [7]: 26.1 µM (inactive) | GI50 [8]: 33.7 µM (inactive) | GI50 [9]: 18.1 µM | GI50 [10]: 14.1 µM (inactive) | GI50 [11]: 28.1 µM (inactive) | GI50 [12]: 14.1 µM (inactive) | GI50 [13]: 18.5 µM (inactive) | GI50 [14]: 16.3 µM (inactive) | GI50 [15]: 28.7 µM (inactive) | GI50 [16]: 29.8 µM (inactive) | GI50 [17]: 18.7 µM (inactive) | GI50 [18]: 19.7 µM (inactive) | GI50 [19]: 29.6 µM (inactive) | GI50 [20]: 19.7 µM (inactive) | GI50 [21]: 27.9 µM (inactive) | GI50 [22]: 15.9 µM (inactive) | GI50 [23]: 16.3 µM (inactive) | GI50 [24]: 15.1 µM (inactive) | GI50 [25]: 28.4 µM (inactive) | GI50 [26]: 15.6 µM (inactive) | GI50 [27]: 20.7 µM (inactive) | GI50 [28]: 18.7 µM (inactive) | GI50 [29]: 29.6 µM (inactive) | GI50 [30]: 45.6 µM (inactive) | GI50 [31]: 32.7 µM (inactive) | GI50 [32]: 33.9 µM (inactive) | GI50 [33]: 29.9 µM (inactive) | GI50 [34]: 21.8 µM (inactive) | GI50 [35]: 14.3 µM (inactive) | GI50 [36]: 22.1 µM (inactive) | GI50 [37]: 20 µM (inactive) | GI50 [38]: 30.1 µM (inactive) | GI50 [39]: 17 µM (inactive) | GI50 [40]: 28.3 µM (inactive) | GI50 [41]: 17.1 µM (inactive) | GI50 [42]: 15.3 µM (inactive) | GI50 [43]: 15.7 µM (inactive) | GI50 [44]: 13 µM (inactive) | GI50 [45]: 21.3 µM (inactive) | GI50 [46]: 17.5 µM (inactive) | GI50 [47]: 30.4 µM (inactive) | GI50 [48]: 13.8 µM (inactive) | GI50 [49]: 20.8 µM (inactive) | GI50 [50]: 28.8 µM (inactive) | GI50 [51]: 16.6 µM (inactive) | GI50 [52]: 28.5 µM (inactive) | GI50 [53]: 16.3 µM (inactive) | GI50 [54]: 22 µM (inactive) | GI50 [55]: 16.3 µM (inactive) | GI50 [56]: 18.2 µM (inactive) | GI50 [57]: 20.6 µM (inactive)

CCc1nc2cc(F)ccc2[nH]c1=O
GI50 [1]: > 100 µM (inactive) | GI50 [2]: > 100 µM (inactive) | GI50 [3]: > 100 µM (inactive) | GI50 [4]: > 100 µM (inactive) | GI50 [5]: > 100 µM (inactive) | GI50 [6]: 2.34 µM (inactive) | GI50 [7]: > 100 µM (inactive) | GI50 [8]: > 100 µM (inactive) | GI50 [9]: > 100 µM | GI50 [10]: > 100 µM (inactive) | GI50 [11]: > 100 µM (inactive) | GI50 [12]: > 100 µM (inactive) | GI50 [13]: > 100 µM (inactive) | GI50 [14]: > 100 µM (inactive) | GI50 [15]: > 100 µM (inactive) | GI50 [16]: > 100 µM (inactive) | GI50 [18]: > 100 µM (inactive) | GI50 [19]: > 100 µM (inactive) | GI50 [20]: > 100 µM (inactive) | GI50 [21]: > 100 µM (inactive) | GI50 [23]: > 100 µM (inactive) | GI50 [24]: > 100 µM (inactive) | GI50 [25]: > 100 µM (inactive) | GI50 [26]: 10.4 µM (inactive) | GI50 [27]: > 100 µM (inactive) | GI50 [28]: > 100 µM (inactive) | GI50 [29]: > 100 µM (inactive) | GI50 [30]: > 100 µM (inactive) | GI50 [31]: > 100 µM (inactive) | GI50 [32]: > 100 µM (inactive) | GI50 [34]: > 100 µM (inactive) | GI50 [35]: > 100 µM (inactive) | GI50 [36]: > 100 µM (inactive) | GI50 [37]: > 100 µM (inactive) | GI50 [38]: > 100 µM (inactive) | GI50 [39]: 82.8 µM (inactive) | GI50 [40]: > 100 µM (inactive) | GI50 [41]: 38.7 µM (inactive) | GI50 [42]: > 100 µM (inactive) | GI50 [43]: > 100 µM (inactive) | GI50 [44]: > 100 µM (inactive) | GI50 [45]: 22.4 µM (inactive) | GI50 [46]: 27.9 µM (inactive) | GI50 [47]: > 100 µM (inactive) | GI50 [48]: > 100 µM (inactive) | GI50 [49]: > 100 µM (inactive) | GI50 [50]: > 100 µM (inactive) | GI50 [51]: > 100 µM (inactive) | GI50 [52]: 65.5 µM (inactive) | GI50 [53]: > 100 µM (inactive) | GI50 [58]: > 100 µM (inactive) | GI50 [54]: > 100 µM (inactive) | GI50 [55]: > 100 µM (inactive) | GI50 [56]: > 100 µM (inactive) | GI50 [57]: > 100 µM (inactive)

Cc1n[nH]c(=O)n1/N=C\c1ccccc1
GI50 [1]: > 100 µM (inactive) | GI50 [2]: > 100 µM (inactive) | GI50 [3]: > 100 µM (inactive) | GI50 [4]: > 100 µM (inactive) | GI50 [5]: > 100 µM (inactive) | GI50 [6]: > 100 µM (inactive) | GI50 [7]: > 100 µM (inactive) | GI50 [8]: > 100 µM (inactive) | GI50 [9]: > 100 µM | GI50 [10]: 83.9 µM (inactive) | GI50 [11]: > 100 µM (inactive) | GI50 [12]: > 100 µM (inactive) | GI50 [13]: > 100 µM (inactive) | GI50 [14]: > 100 µM (inactive) | GI50 [16]: > 100 µM (inactive) | GI50 [17]: > 100 µM (inactive) | GI50 [18]: > 100 µM (inactive) | GI50 [19]: > 100 µM (inactive) | GI50 [20]: 59.2 µM (inactive) | GI50 [21]: > 100 µM (inactive) | GI50 [22]: > 100 µM (inactive) | GI50 [23]: > 100 µM (inactive) | GI50 [24]: > 100 µM (inactive) | GI50 [25]: > 100 µM (inactive) | GI50 [26]: > 100 µM (inactive) | GI50 [27]: > 100 µM (inactive) | GI50 [29]: > 100 µM (inactive) | GI50 [30]: > 100 µM (inactive) | GI50 [31]: > 100 µM (inactive) | GI50 [32]: > 100 µM (inactive) | GI50 [59]: > 100 µM (inactive) | GI50 [34]: > 100 µM (inactive) | GI50 [35]: > 100 µM (inactive) | GI50 [36]: > 100 µM (inactive) | GI50 [37]: > 100 µM (inactive) | GI50 [38]: > 100 µM (inactive) | GI50 [40]: > 100 µM (inactive) | GI50 [41]: > 100 µM (inactive) | GI50 [42]: > 100 µM (inactive) | GI50 [43]: 0.0855 µM (active) | GI50 [44]: > 100 µM (inactive) | GI50 [45]: > 100 µM (inactive) | GI50 [46]: < 0.01 µM (active) | GI50 [47]: > 100 µM (inactive) | GI50 [48]: > 100 µM (inactive) | GI50 [49]: > 100 µM (inactive) | GI50 [50]: > 100 µM (inactive) | GI50 [52]: > 100 µM (inactive) | GI50 [53]: > 100 µM (inactive) | GI50 [58]: > 100 µM (inactive) | GI50 [55]: > 100 µM (inactive) | GI50 [56]: > 100 µM (inactive) | GI50 [57]: > 100 µM (inactive)
